In article PMC8142146 (Bioorganic chemistry, 2020):

How the values were obtained:
Assay in all cases: PARP-isoform screening, Chemiluminescent Activity Assay Kit
Format in all cases: biochemical
Details in all cases: Figure 5
PARP3 = target: T1, PARP3 (Homo sapiens, UniProt Q9Y6F1)
T1 sequence (Q9Y6F1 1-533): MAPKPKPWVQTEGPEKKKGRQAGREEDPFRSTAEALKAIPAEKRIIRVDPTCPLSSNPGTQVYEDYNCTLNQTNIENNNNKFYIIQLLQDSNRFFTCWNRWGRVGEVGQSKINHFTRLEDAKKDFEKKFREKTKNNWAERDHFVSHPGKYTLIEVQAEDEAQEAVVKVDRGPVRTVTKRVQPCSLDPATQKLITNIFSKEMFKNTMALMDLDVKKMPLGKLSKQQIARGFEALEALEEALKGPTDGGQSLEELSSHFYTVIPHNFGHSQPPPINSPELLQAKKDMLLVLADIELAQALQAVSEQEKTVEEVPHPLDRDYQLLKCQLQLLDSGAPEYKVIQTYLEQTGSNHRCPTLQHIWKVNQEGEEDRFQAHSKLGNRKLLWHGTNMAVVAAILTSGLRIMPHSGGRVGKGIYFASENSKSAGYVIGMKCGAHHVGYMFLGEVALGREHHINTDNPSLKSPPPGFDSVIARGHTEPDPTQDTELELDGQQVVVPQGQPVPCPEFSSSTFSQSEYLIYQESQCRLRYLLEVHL

PARP10 = target: T2, PARP10 (Homo sapiens, UniProt Q53GL7)
T2 sequence (Q53GL7 1-1025): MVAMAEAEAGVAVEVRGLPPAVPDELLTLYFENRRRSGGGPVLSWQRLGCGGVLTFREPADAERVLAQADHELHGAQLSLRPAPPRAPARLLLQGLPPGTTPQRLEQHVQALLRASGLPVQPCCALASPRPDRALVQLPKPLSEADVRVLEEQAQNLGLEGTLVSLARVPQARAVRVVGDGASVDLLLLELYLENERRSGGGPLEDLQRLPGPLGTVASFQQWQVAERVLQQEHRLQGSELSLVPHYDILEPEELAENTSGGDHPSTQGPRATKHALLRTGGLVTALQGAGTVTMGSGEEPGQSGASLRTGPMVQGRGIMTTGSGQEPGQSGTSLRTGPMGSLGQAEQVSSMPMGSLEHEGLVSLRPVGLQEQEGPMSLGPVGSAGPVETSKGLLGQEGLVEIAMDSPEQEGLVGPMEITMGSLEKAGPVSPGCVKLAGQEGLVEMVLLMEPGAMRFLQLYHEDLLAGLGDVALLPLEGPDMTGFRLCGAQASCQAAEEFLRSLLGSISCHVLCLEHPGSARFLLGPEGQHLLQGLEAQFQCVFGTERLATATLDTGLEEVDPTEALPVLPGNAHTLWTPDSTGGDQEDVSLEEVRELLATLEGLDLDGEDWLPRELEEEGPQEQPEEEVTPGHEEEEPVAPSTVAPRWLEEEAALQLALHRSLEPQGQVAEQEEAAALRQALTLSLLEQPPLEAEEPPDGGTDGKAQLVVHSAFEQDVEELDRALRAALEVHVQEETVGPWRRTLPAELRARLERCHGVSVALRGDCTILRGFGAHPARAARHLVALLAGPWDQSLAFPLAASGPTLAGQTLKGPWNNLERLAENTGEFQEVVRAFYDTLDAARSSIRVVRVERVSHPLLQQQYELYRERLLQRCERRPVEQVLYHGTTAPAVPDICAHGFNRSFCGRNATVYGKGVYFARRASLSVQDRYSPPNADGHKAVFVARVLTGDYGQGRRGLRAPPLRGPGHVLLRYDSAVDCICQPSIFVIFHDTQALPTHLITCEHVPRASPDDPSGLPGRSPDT

PARP8 = target: T3, PARP8 (Homo sapiens, UniProt Q8N3A8)
T3 sequence (Q8N3A8 1-854): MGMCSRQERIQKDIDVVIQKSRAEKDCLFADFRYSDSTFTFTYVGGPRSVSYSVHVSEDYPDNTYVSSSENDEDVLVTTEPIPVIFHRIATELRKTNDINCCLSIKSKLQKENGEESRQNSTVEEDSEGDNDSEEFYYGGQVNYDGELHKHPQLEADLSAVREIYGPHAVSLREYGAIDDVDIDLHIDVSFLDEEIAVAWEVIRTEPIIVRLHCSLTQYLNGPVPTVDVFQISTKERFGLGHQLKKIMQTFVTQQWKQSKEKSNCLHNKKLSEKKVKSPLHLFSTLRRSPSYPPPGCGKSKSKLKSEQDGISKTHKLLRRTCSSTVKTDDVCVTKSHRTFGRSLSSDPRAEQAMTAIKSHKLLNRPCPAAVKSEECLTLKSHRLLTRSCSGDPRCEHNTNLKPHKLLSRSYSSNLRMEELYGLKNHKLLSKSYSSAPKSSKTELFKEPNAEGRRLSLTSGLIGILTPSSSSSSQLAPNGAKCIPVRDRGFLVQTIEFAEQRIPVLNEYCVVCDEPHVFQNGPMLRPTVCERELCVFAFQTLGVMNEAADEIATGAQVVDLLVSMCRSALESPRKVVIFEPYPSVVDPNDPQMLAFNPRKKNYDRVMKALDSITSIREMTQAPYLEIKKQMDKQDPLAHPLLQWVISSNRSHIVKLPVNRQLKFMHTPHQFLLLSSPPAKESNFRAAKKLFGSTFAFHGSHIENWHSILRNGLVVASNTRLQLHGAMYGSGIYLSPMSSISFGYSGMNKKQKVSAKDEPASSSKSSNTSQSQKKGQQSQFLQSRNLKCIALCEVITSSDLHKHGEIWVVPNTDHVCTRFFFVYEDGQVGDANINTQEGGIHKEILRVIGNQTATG

PARP14 = PARP14 (Homo sapiens, UniProt Q460N5)
Chain of PARP14 (Q460N5 whole entry): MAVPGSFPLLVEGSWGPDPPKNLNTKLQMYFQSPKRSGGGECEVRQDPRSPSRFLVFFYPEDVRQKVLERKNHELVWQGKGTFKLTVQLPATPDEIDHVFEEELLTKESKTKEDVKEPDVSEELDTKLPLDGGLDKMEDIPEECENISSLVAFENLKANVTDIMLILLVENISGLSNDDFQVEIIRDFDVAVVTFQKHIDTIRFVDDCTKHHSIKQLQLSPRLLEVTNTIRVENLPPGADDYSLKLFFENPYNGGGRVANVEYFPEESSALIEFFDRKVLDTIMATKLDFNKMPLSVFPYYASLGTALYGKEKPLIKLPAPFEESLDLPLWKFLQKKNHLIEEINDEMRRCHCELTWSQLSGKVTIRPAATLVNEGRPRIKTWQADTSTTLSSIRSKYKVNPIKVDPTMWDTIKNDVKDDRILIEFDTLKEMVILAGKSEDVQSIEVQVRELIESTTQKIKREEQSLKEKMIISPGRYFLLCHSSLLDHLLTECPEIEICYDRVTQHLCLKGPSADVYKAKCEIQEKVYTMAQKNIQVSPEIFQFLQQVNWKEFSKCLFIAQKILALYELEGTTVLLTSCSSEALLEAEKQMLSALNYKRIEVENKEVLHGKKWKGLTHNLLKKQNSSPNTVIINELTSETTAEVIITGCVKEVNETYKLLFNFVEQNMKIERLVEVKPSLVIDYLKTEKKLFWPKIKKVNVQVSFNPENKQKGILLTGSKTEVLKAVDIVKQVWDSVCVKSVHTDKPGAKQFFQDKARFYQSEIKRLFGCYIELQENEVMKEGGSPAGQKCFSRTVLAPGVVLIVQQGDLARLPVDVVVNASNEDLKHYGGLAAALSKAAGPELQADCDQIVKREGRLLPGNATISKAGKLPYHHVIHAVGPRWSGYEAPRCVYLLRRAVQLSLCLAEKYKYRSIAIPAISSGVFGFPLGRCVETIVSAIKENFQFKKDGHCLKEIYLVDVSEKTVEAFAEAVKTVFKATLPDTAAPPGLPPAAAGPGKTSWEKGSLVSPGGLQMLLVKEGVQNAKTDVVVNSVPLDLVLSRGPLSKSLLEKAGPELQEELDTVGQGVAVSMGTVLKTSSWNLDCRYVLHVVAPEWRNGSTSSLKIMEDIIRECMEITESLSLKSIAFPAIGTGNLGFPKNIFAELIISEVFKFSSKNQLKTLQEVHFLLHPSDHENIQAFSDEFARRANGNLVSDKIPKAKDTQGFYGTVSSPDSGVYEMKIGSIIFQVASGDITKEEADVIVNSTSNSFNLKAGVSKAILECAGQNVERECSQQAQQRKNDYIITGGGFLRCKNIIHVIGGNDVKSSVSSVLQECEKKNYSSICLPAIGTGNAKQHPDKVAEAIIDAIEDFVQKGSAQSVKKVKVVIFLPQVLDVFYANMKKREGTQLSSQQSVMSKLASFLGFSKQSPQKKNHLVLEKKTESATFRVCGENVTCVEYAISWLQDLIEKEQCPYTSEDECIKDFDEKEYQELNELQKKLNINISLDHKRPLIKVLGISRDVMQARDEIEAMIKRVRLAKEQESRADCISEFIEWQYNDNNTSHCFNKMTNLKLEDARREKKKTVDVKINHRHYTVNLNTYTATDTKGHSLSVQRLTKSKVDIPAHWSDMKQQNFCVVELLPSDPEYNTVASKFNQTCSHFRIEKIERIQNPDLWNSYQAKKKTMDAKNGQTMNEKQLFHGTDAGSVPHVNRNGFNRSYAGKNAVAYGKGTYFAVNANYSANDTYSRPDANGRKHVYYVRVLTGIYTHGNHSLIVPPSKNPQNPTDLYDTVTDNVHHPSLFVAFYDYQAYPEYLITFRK

NC(=O)c1cccc2c1O/C(=C\c1ccc(O)cc1)C(=O)N2 [Compound 49, (Z)-2-(4-Hydroxybenzylidene)-3-oxo-3,4-dihydro-2H-benzo[b][1,4]oxazine-8-carboxamide]
PARP3 inhibition (PARP3): substantially inhibited | PARP10 inhibition (PARP10): did not interfere | PARP8 inhibition (PARP8): did not interfere | PARP14 inhibition (PARP14): did not interfere
